Results from patent publication US20110178104A1, “Anti-Heparin Compounds” (POLYMEDIX INC., priority 2010, published 2011).
Converted amounts (≈) assume the structure as drawn.

How the values were obtained:
[1] = tested on: Unfractionated heparin; test: aPTT clotting assay, UFH 0.4 U/mL in plasma (Example 10); format: biochemical; details: unfractionated heparin 0.4 U/mL in plasma; aPTT clotting
Experimental: (§1) aPTT clotting Assay: Unfractionated heparin was mixed with plasma at a final concentration of 0.4 U/mL (or concentration which increases aPTT time to between 120 and 300 seconds). […] The ACL Elite Hemostasis analyzer (Beckman Coulter™) was used to add aPTT reagent (HemosIL SynthASil) to supplemented plasma. Clotting was initiated by addition of CaCl2 and time to clot was recorded.

[2] = tested on: UFH; test: FXa amidolytic assay (Example 10), UFH; details: read-out: Heparin FXa uM EC50; UFH 0.03 units/mL; human antithrombin, bovine Factor Xa
[3] = tested on: tinzaparin; test: FXa amidolytic assay (Example 10), tinzaparin; details: read-out: Tinzap FXa EC50; tinzaparin 0.1 ug/ml; human antithrombin, bovine Factor Xa
[4] = tested on: fondaparinux; test: FXa amidolytic assay (Example 10), fondaparinux; details: read-out: Fondap FXa EC50; fondaparinux 0.02 μg/mL; human antithrombin, bovine Factor Xa
[5] = tested on: enoxaparin; test: FXa amidolytic assay (Example 10), enoxaparin; details: read-out: Enox FXa EC50; enoxaparin 0.1 ug/ml; human antithrombin, bovine Factor Xa
[6] = tested on: isolated human erythrocytes; test: cells; format: cell-based; details: human RBC, 1 hour at 37° C.; for EC50: Homo sapiens, Erythrocyte, 1 h, read-out: Hemolysis EC50
Experimental: Hemolysis assay: Cytotoxicity was also evaluated in a hemolysis assay using isolated human erythrocytes. Pooled whole human blood was centrifuged to separate the red blood cells (RBC). The isolated RBCs were rinsed and diluted in Tris-buffered saline (TBS buffer, pH 7.4) to obtain a 0.22% RBC stock suspension. Serial two-fold dilutions of test agent were assayed over a concentration range of 1000 to 0.48 μg/ml with shaking for 1 hour at 37° C. At the conclusion of the incubation time, samples were centrifuged and 30 μl of the supernatant was added to 100 μl H2O. OD405 measurements were read for hemoglobin concentration. The bee venom peptide melittin was used as a positive control. EC50 values were determined using a four parameter logistic equation: Y=Bottom+(Top-Bottom)/(1+10̂((LogEC50-X)*HillSlope)).

[7] = tested on: unfractionated heparin (UFH); test: aPTT clotting assay, UFH 0.2 U/mL in plasma (Example 7); format: biochemical; details: UFH 0.2 U/mL in plasma
Experimental: as §1, with “Assay.” for “Assay:”, “0.2 U/mL.” for “0.4 U/mL (or concentration which increases aPTT time to between 120 and 300 seconds).”

[8] = tested on: enoxaparin (ENOX); test: FXa chromogenic assay (absence of plasma), enoxaparin; details: enoxaparin 0.1 μg/mL, absence of plasma
[9] = tested on: fondaparinux (FONDAPX); test: FXa chromogenic assay (absence of plasma), fondaparinux; details: fondaparinux 0.02 μg/mL, absence of plasma

Row | EC50 [1] | EC50 [2] | EC50 [3] | EC50 [4] | EC50 [5] | UFH (aPTT) EC50 [7] | ENOX (FXa) EC50 [8] | FONDAPX (FXa) EC50 [9] | Compound | EC50 [6] | Hemolysis EC50 [6]
1 | 2360 nM | > 10 µM | 123 nM | > 10000 nM | 123 nM |  |  |  | COc1ccc(NC(=O)[C@@H](CCCNC(N)=O)NC(=O)c2cc(NC(=O)[C@@H](CCCNC(N)=O)NC(=O)c3cc(NC(=O)[C@@H](CCCNC(N)=O)NC(=O)c4cc(NC(=O)[C@H](N)CCCNC(=N)N)ccc4OC)ccc3OC)ccc2OC)cc1C(N)=O [Compound 373] |  | 
2 | 1610 nM |  | 178 nM | 873 nM | 293 nM |  |  |  | COc1ccc(NC(=O)[C@H](CCCCN)NC(=O)c2cc(NC(=O)[C@H](CCCCN)NC(=O)c3cc(NC(=O)[C@H](CCC(=O)O)NC(=O)c4cc(NC(=O)[C@@H](N)CCCCN)ccc4OC)ccc3OC)ccc2OC)cc1C(N)=O [Compound 317] | > 1000 µg/mL | 
3 | 1990 nM |  | 132 nM | 408 nM | 150 nM |  |  |  | COc1ccc(NC(=O)[C@@H](CCCNC(=N)N)NC(=O)c2cc(NC(=O)[C@@H](CCCNC(=N)N)NC(=O)c3cc(NC(=O)[C@@H](CCCNC(=N)N)NC(=O)c4cc(NC(=O)[C@H](N)CCCNC(=N)N)ccc4OC)ccc3OC)ccc2OC)cc1C(=O)NCC(=O)O [Compound 278] |  | no significant decrease
4 | 3780 nM |  | 118 nM | 118 nM | 120 nM |  |  |  | COc1ccc(NC(=O)[C@@H](CCCNC(=N)N)NC(=O)c2cc(NC(=O)[C@@H](CCCNC(=N)N)NC(=O)c3cc(NC(=O)[C@@H](CCCNC(=N)N)NC(=O)c4cc(NC(=O)[C@H](N)CCCNC(=N)N)ccc4OC)ccc3OCC(=O)O)ccc2OC)cc1C(=O)N[C@H](Cc1c[nH]c2ccccc12)C(N)=O [Compound 307] | ~50 µg/mL (≈ 34 µM) | 
5 | 2700 nM |  | 213 nM | 2230 nM | 505 nM |  |  |  | COc1ccc(NC(=O)[C@H](CCCNC(=N)N)NC(=O)c2cc(NC(=O)[C@H](CCCNC(=N)N)NC(=O)c3cc(NC(=O)[C@H](CCC(=O)O)NC(=O)c4cc(NC(=O)[C@@H](N)CCCNC(=N)N)ccc4OC)ccc3OC)ccc2OC)cc1C(N)=O [Compound 325] | > 1000 µg/mL | 
6 |  | 19.4 µM | 7240 nM | > 10000 nM | > 5000 nM |  |  |  | COc1cc(OC)c(C(=O)NCCNC(=O)c2cc(C(=O)NCCNC(=O)c3cc(C(=O)NCCN)c(OC)cc3OC)c(OC)cc2OC)cc1C(=O)NCCN [Compound 386] |  | 
7 | > 10000 nM |  | 189 nM | 146 nM | 192 nM |  |  |  | COc1ccc(NC(=O)[C@@H](CCCNC(=N)N)NC(=O)c2cc(NC(=O)[C@@H](CCCNC(=N)N)NC(=O)c3cc(NC(=O)[C@@H](CCCNC(=N)N)NC(=O)c4cc(NC(=O)[C@H](N)CCCNC(=N)N)ccc4OC)ccc3OC)ccc2OC)cc1C(=O)N[C@H](Cc1c[nH]c2ccccc12)C(=O)O [Compound 303] | ~500 µg/mL (≈ 351 µM) | 
8 | 1450 nM |  | 120 nM | 385 nM | 138 nM |  |  |  | COc1ccc(NC(=O)[C@H](CCCCN)NC(=O)c2cc(NC(=O)[C@H](CCCCN)NC(=O)c3cc(NC(=O)[C@H](CCCCN)NC(=O)c4cc(NC(=O)[C@@H](N)CCCCN)ccc4OC)ccc3OC)ccc2OC)cc1C(=O)N[C@@H](Cc1ccc(O)cc1)C(=O)O [Compound 265] |  | no significant decrease
9 | 2020 nM |  | 102 nM | 390 nM | 119 nM |  |  |  | COc1ccc(NC(=O)[C@H](CCCNC(=N)N)NC(=O)c2cc(NC(=O)[C@H](CCCNC(=N)N)NC(=O)c3cc(NC(=O)[C@H](CCCNC(=N)N)NC(=O)c4cc(NC(=O)[C@@H](N)CCCNC(=N)N)ccc4OC)ccc3OCC(=O)O)ccc2OC)cc1C(N)=O [Compound 288] |  | no significant decrease
10 | 1820 nM |  | 225 nM | 2690 nM | 441 nM |  |  |  | COc1ccc(NC(=O)[C@@H](CCCNC(=N)N)NC(=O)c2cc(NC(=O)[C@@H](CCCNC(=N)N)NC(=O)c3cc(NC(=O)[C@@H](CCC(=O)O)NC(=O)c4cc(NC(=O)[C@H](N)CCCNC(=N)N)ccc4OC)ccc3OC)ccc2OC)cc1C(N)=O [Compound 321] | > 1000 µg/mL | 
11 | 2060 nM |  | 167 nM | 334 nM | 201 nM |  |  |  | COc1ccc(NC(=O)[C@H](CCCNC(=N)N)NC(=O)c2cc(NC(=O)[C@H](CCCNC(=N)N)NC(=O)c3cc(NC(=O)[C@H](CCCNC(=N)N)NC(=O)c4cc(NC(C)=O)ccc4OC)ccc3OC)ccc2OC)cc1C(N)=O [Compound 298] |  | no significant decrease
12 | > 10000 nM |  | 281 nM | 224 nM | 249 nM |  |  |  | COc1ccc(NC(=O)[C@H](CCCCN)NC(=O)c2cc(NC(=O)[C@H](CCCCN)NC(=O)c3cc(NC(=O)[C@H](CCCCN)NC(=O)c4cc(NC(=O)[C@@H](N)Cc5c[nH]c6ccccc56)ccc4OC)ccc3OC)ccc2OCC(=O)O)cc1C(=O)N[C@@H](Cc1c[nH]c2ccccc12)C(N)=O [Compound 334] | ~15 µg/mL (≈ 10.6 µM) | 
13 | > 10000 nM |  | 136 nM | 192 nM | 157 nM |  |  |  | COc1ccc(NC(=O)[C@@H](CCCNC(=N)N)NC(=O)c2cc(NC(=O)[C@@H](CCCNC(=N)N)NC(=O)c3cc(NC(=O)[C@@H](CCCNC(=N)N)NC(=O)c4cc(NC(C)=O)ccc4OC)ccc3OCC(=O)O)ccc2OC)cc1C(=O)N[C@H](Cc1c[nH]c2ccccc12)C(N)=O [Compound 308] | ~500 µg/mL (≈ 369 µM) | 
14 |  |  |  |  |  | 2.08 µg/mL | 0.21 µg/mL | 1.12 µg/mL | COc1ccc(NC(=O)[C@@H](CCCNC(=N)N)NC(=O)c2cc(NC(=O)[C@@H](CCCNC(=N)N)NC(=O)c3cc(NC(=O)[C@@H](CCCNC(=N)N)NC(=O)c4cc(NC(C)=O)ccc4OC)ccc3OC)ccc2OC)cc1C(=O)NCCCCCN [Compound 53] |  | 
15 |  |  |  |  |  | 4.89 µg/mL | 0.2306 µg/mL | 0.4025 µg/mL | COc1ccc(NC(=O)[C@H](CCCCN)NC(=O)c2cc(NC(=O)[C@H](CCCCN)NC(=O)c3cc(NC(=O)[C@H](CCCCN)NC(=O)c4cc(NC(=O)[C@@H](N)CCCCN)ccc4OC)ccc3OC)ccc2OC)cc1C(=O)N[C@@H](Cc1c[nH]c2ccccc12)C(=O)O [Compound 113] |  | 
16 |  |  |  |  |  | 3.00 µg/mL | 0.9758 µg/mL | 12.56 µg/mL | COc1ccc(NC(=O)[C@H](CCCCN)NC(=O)c2cc(NC(=O)[C@@H](N)CCCCN)ccc2OC)cc1C(=O)N[C@@H](CCCCN)C(=O)Nc1ccc(OC)c(C(=O)N[C@@H](CCCCN)C(=O)Nc2ccc(OC)c(C(=O)N[C@H](C(=O)O)C(C)C)c2)c1 [Compound 114] |  | 
17 |  |  |  |  |  | 0.9713 µg/mL | 0.093 µg/mL | 0.272 µg/mL | COc1ccc(NC(=O)[C@H](CCCCN)NC(=O)c2cc(NC(=O)[C@H](CCCCN)NC(=O)c3cc(NC(=O)[C@H](CCCCN)NC(=O)c4cc(NC(=O)[C@@H](N)CCCCN)ccc4OC)ccc3OC)ccc2OC)cc1C(N)=O [Compound 90] |  | 
18 |  |  |  |  |  | 2.58 µg/mL | 0.87 µg/mL | 0.86 µg/mL | COc1ccc(NC(=O)[C@@H](CCCNC(=N)N)NC(=O)c2cc(NC(=O)[C@@H](CCCNC(=N)N)NC(=O)c3cc(NC(=O)[C@@H](CCCNC(=N)N)NC(=O)c4cc(NC(=O)[C@H](N)Cc5c[nH]c6ccccc56)ccc4OC)ccc3OC)ccc2OC)cc1C(N)=O [Compound 71] |  | 
